Data from patent publication US12637467B2, “Inhibitor of BTK and mutants thereof” (Newave Pharmaceutical Inc., priority 2019, dated 2026).
“Also recorded” adds a separate entry of the source.

Molecular target: WT BTK (Homo sapiens, UniProt Q06187)
Test: In vitro dialysis assay (irreversibility assay), WT BTK
Type: biochemical
Conditions: for Conclusion (WT BTK): reversible or irreversible inhibition after 24 hr dialysis; for Recovery after 24 h dialysis: 0.003 mM compound pre-incubated with 2 nM BTK for 2 hr, dialyzed 24 hr against buffer with 40 mM ATP, BTK activity vs non-dialyzed samples
Method: The compound-enzyme complex was dialyzed against the same buffer supplemented with 40 mM ATP for 24 hr. Cumulative dialysis factor >160,000×. After dialysis, the BTK activity was measured in the presence 40 mM ATP and 1 mM substrate peptide and compared to that in non-dialyzed samples. Assay buffer: 100 mM HEPES, pH7.5; 0.1% BSA, 0.01% Triton-X 100; 5 mM MgCl2; 1 mM DTT.

WT BTK, sequence (Q06187 whole entry): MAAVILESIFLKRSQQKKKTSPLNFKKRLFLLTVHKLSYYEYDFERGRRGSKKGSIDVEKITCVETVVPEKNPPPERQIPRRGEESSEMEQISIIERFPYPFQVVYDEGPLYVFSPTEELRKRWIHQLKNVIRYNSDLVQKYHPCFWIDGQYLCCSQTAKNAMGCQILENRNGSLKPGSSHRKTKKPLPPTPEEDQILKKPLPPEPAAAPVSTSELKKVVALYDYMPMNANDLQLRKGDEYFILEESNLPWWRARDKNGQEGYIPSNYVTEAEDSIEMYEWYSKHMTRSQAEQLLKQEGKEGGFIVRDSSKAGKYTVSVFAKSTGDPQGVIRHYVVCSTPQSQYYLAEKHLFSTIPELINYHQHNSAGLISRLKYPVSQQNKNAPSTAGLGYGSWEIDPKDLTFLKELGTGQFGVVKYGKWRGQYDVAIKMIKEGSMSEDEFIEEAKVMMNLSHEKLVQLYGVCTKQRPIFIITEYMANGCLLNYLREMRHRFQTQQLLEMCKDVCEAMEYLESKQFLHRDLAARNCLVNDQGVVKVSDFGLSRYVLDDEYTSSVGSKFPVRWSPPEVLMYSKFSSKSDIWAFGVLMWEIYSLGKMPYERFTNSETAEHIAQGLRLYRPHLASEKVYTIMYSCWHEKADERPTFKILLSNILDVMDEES

Compound	Conclusion (WT BTK)	Recovery after 24 h dialysis [%]
C=CC(=O)Nc1cc(Nc2nc(-c3ccnc(N4CCn5c(cc6c5CC(C)(C)C6)C4=O)c3CO)cn(C)c2=O)ccc1N1CCN(C2COC2)C[C@@H]1C [Example 3, (S)—N-(5-((6-(2-(7,7-dimethyl-1-oxo-1,3,4,6,7,8-hexahydro-2H-cyclopenta[4,5]pyrrolo[1,2-a]pyrazin-2-yl)-3-(hydroxymethyl)pyridin-4-yl)-4-methyl-3-oxo-3,4-dihydropyrazin-2-yl)amino)-2-(2-methyl-4-(oxetan-3-yl)piperazin-1-yl)phenyl)acrylamide]	irreversible inhibitors; also recorded: Irreversible/covalent inhibition	–
C=CC(=O)Nc1cc(Nc2nc(-c3ccnc(N4CCn5c(cc6c5CC(C)(C)C6)C4=O)c3C)cn(C)c2=O)ccc1N1CCN(C2COC2)C[C@@H]1C [Example 11, (S)—N-(5-((6-(2-(7,7-dimethyl-1-oxo-1,3,4,6,7,8-hexahydro-2H-cyclopenta[4,5]pyrrolo[1,2-a]pyrazin-2-yl)-3-methylpyridin-4-yl)-4-methyl-3-oxo-3,4-dihydropyrazin-2-yl)amino)-2-(2-methyl-4-(oxetan-3-yl)piperazin-1-yl)phenyl)acrylamide]	irreversible inhibitors; also recorded: Irreversible/covalent inhibition	–
C=CC(=O)Nc1cc(Nc2nc(-c3ccnc(N4CCn5c(cc6c5CC(C)(C)C6)C4=O)c3CO)cn(C)c2=O)ccc1N1CCC(N2CCOCC2)CC1C (centres unmarked) [Example 12, N-(5-((6-(2-(7,7-dimethyl-1-oxo-1,3,4,6,7,8-hexahydro-2H-cyclopenta[4,5]pyrrolo[1,2-a]pyrazin-2-yl)-3-(hydroxymethyl)pyridin-4-yl)-4-methyl-3-oxo-3,4-dihydropyrazin-2-yl)amino)-2-(2-methyl-4-morpholinopiperidin-1-yl)phenyl)acrylamide]	irreversible inhibitors; also recorded: Irreversible/covalent inhibition	–
C=CC(=O)Nc1cc(Nc2nc(-c3ccnc(N4CCn5c(cc6c5CC(C)(C)C6)C4=O)c3C)cn(C)c2=O)ccc1N1CCC(N2CCOCC2)CC1C [Example 17, N-(5-[[6-(2-[4,4-dimethyl-9-oxo-1,10-diazatricyclo[6.4.0.0^[2,6]]dodeca-2(6),7-dien-10-yl]-3-methylpyridin-4-yl)-4-methyl-3-oxopyrazin-2-yl]amino]-2-[(2S)-2-methyl-4-(morpholin-4-yl)piperidin-1-yl]phenyl)prop-2-enamide]	Irreversible/covalent inhibition	–
C=CC(=O)Nc1cc(Nc2nc(-c3ccnc(N4CCn5c(cc6c5CC(C)(C)C6)C4=O)c3C)cn(C)c2=O)ccc1N1CCC(N2CCOCC2)CC1.Cl [Example 18, N-(5-[[6-(2-[4,4-dimethyl-9-oxo-1,10-diazatricyclo[6.4.0.0^[2,6]]dodeca-2(6),7-dien-10-yl]-3-methylpyridin-4-yl)-4-methyl-3-oxopyrazin-2-yl]amino]-2-[4-(morpholin-4-yl)piperidin-1-yl]phenyl)prop-2-enamide hydrochloride]	Irreversible/covalent inhibition	~1
C=CC(=O)Nc1cc(Nc2nc(-c3ccnc(N4CCn5c(cc6c5CC(C)(C)C6)C4=O)c3CO)cn(C)c2=O)ccc1N1CCC(N2CCC(F)(F)CC2)CC1 [Example 20, N-(2-[4,4-difluoro-[1,4′-bipiperidin]-1′-yl]-5-[[6-(2-[4,4-dimethyl-9-oxo-1,10-diazatricyclo[6.4.0.0^[2,6]]dodeca-2(6),7-dien-10-yl]-3-(hydroxymethyl)pyridin-4-yl)-4-methyl-3-oxopyrazin-2-yl]amino]phenyl)prop-2-enamide]	Irreversible/covalent inhibition	~1
C=CC(=O)Nc1cc(Nc2nc(-c3ccnc(N4CCn5c(cc6c5CC(C)(C)C6)C4=O)c3CO)cn(C)c2=O)ccc1N1CCC(N2CCN(C)CC2)CC1 [Example 21, N-(5-[[6-(2-[4,4-dimethyl-9-oxo-1,10-diazatricyclo[6.4.0.0^[2,6]]dodeca-2(6),7-dien-10-yl]-3-(hydroxymethyl)pyridin-4-yl)-4-methyl-3-oxopyrazin-2-yl]amino]-2-[4-(4-methylpiperazin-1-yl)piperidin-1-yl]phenyl)prop-2-enamide]	Irreversible/covalent inhibition	~1
C=CC(=O)Nc1cc(Nc2nc(-c3ccnc(N4CCn5c(cc6c5CC(C)(C)C6)C4=O)c3C)cn(C)c2=O)ccc1N1CCN(C2CCOCC2)C[C@@H]1C [Example 40, N-(5-[[6-(2-[4,4-dimethyl-9-oxo-1,10-diazatricyclo[6.4.0.0^[2,6]]dodeca-2(6),7-dien-10-yl]-3-methylpyridin-4-yl)-4-methyl-3-oxopyrazin-2-yl]amino]-2-[(2S)-2-methyl-4-(oxan-4-yl)piperazin-1-yl]phenyl)prop-2-enamide]	Irreversible/covalent inhibition	~1

Continued, values first:

Conclusion (WT BTK)	Recovery after 24 h dialysis [%]	Compound
Irreversible/covalent inhibition	~1	C=CC(=O)Nc1cc(Nc2nc(-c3ccnc(N4CCn5c(cc6c5CC(C)(C)C6)C4=O)c3CO)cn(C)c2=O)ccc1N1CCN(C2CCC(F)(F)CC2)C[C@@H]1C [Example 23, N-[2-[(2S)-4-(4,4-difluorocyclohexyl)-2-methylpiperazin-1-yl]-5-[[6-(2-[4,4-dimethyl-9-oxo-1,10-diazatricyclo[6.4.0.0^[2,6]]dodeca-2(6),7-dien-10-yl]-3-(hydroxymethyl)pyridin-4-yl)-4-methyl-3-oxopyrazin-2-yl]amino]phenyl]prop-2-enamide]
Irreversible/covalent inhibition	~1	C=CC(=O)Nc1cc(Nc2nc(-c3ccnc(N4CCCn5c(cc6c5CC(C)(C)C6)C4=O)c3CO)cn(C)c2=O)ccc1N1CCN(C2COC2)C[C@@H]1C [Example 29, N-(5-[[6-(2-[4,4-dimethyl-9-oxo-1,10-diazatricyclo[6.5.0.0^[2,6]]trideca-2(6),7-dien-10-yl]-3-(hydroxymethyl)pyridin-4-yl)-4-methyl-3-oxopyrazin-2-yl]amino]-2-[(2S)-2-methyl-4-(oxetan-3-yl)piperazin-1-yl]phenyl)prop-2-enamide]
Irreversible/covalent inhibition	~1	C=CC(=O)Nc1cc(Nc2nc(-c3ccnc(N4CCc5c(sc6c5CCC6(C)C)C4=O)c3CO)cn(C)c2=O)ccc1N1CCN(C2COC2)C[C@@H]1C [Example 35, N-(5-[[6-(2-[5,5-dimethyl-9-oxo-7-thia-10-azatricyclo[6.4.0.0^[2,6]]dodeca-1(8),2(6)-dien-10-yl]-3-(hydroxymethyl)pyridin-4-yl)-4-methyl-3-oxopyrazin-2-yl]amino]-2-[(2S)-2-methyl-4-(oxetan-3-yl)piperazin-1-yl]phenyl)prop-2-enamide]
Irreversible/covalent inhibition	~1	C=CC(=O)Nc1cc(Nc2nc(-c3ccnc(N4CCc5c(sc6c5CCCC6)C4=O)c3CO)cn(C)c2=O)ccc1N1CCN(C2COC2)C[C@@H]1C [Example 36, N-[5-([6-[3-(hydroxymethyl)-2-[6-oxo-8-thia-5-azatricyclo[7.4.0.0 ^[2,7]]trideca-1(9),2(7)-dien-5-yl]pyridin-4-yl]-4-methyl-3-oxopyrazin-2-yl]amino)-2-[(2S)-2-methyl-4-(oxetan-3-yl)piperazin-1-yl]phenyl]prop-2-enamide]
Irreversible/covalent inhibition	~1	C=CC(=O)Nc1cc(Nc2nc(-c3ccnc(N4CCCn5c(cc6c5CC(C)(C)C6)C4=O)c3CO)cn(C)c2=O)ccc1N1CCN([C@H]2C[C@@H](C)O[C@@H](C)C2)C[C@@H]1C [Example 38, N-(5-[[6-(2-[4,4-dimethyl-9-oxo-1,10-diazatricyclo[6.5.0.0^[2,6]]trideca-2(6),7-dien-10-yl]-3-(hydroxymethyl)pyridin-4-yl)-4-methyl-3-oxopyrazin-2-yl]amino]-2-[(2S)-2-methyl-4-[(2R,4r,6S)-2,6-dimethyloxan-4-yl]piperazin-1-yl]phenyl)prop-2-enamide]
Irreversible/covalent inhibition	~1	C=CC(=O)Nc1cc(Nc2nc(-c3ccnc(N4CCn5c(cc6c5CC(C)(C)C6)C4=O)c3CO)cn(C)c2=O)ccc1N1CCN(C2CCOC2)C[C@@H]1C (stereo partly drawn) [Example 39, N-(5-[[6-(2-[4,4-dimethyl-9-oxo-1,10-diazatricyclo[6.4.0.0^[2,6]]dodeca-2(6),7-dien-10-yl]-3-(hydroxymethyl)pyridin-4-yl)-4-methyl-3-oxopyrazin-2-yl]amino]-2-[(2S)-2-methyl-4-(oxolan-3-yl)piperazin-1-yl]phenyl)prop-2-enamide]
Irreversible/covalent inhibition	~1	C=CC(=O)Nc1cc(Nc2nc(-c3ccnc(N4CCn5c(cc6c5CC(C)(C)C6)C4=O)c3CO)cn(C)c2=O)ccc1C1C(=O)N(C)CCN1C1COC1 (centres unmarked) [Example 41]
Irreversible/covalent inhibition	~1	C=CC(=O)Nc1cc(Nc2nc(-c3ccnc(N4CCn5c(cc6c5CC(C)(C)C6)C4=O)c3CO)cn(C)c2=O)ccc1C1CN(C2COC2)CC(=O)N1C (centres unmarked) [Example 42, N-(5-[[6-(2-[4,4-dimethyl-9-oxo-1,10-diazatricyclo[6.4.0.0^[2,6]]dodeca-2(6),7-dien-10-yl]-3-(hydroxymethyl)pyri-din-4-yl)-4-methyl-3-oxopyrazin-2-yl]amino]-2-[1-methyl-4-(oxetan-3-yl)-6-oxopiperazin-2-yl]phenyl)prop-2-enamide]
Irreversible/covalent inhibition	–	C=CC(=O)Nc1cc(Nc2nc(-c3ccnc(N4CCn5c(cc6c5CC(C)(C)C6)C4=O)c3CO)cn(C)c2=O)ccc1C1CN(C)C(=O)CN1C1COC1 (centres unmarked) [Example 43]
